The data set can be described thus: Water solubility of the components of the preferred aqueous composition. The class given is physicochemical. Particulars: component of the preferred aqueous composition. From the text: The film-forming component is designed to be insoluble so that it will form a film on the skin.

Consider `OCC(O)CO` [Glycerin], for which the “Water Solubility” value is recorded as “S”.

The values above are taken from patent US20100255070A1, “COMPOSITIONS AND METHODS FOR PREVENTING, MINIMIZING AND HEALING SKIN IRRITATION AND TRAUMA” (PRELIEF INC., priority 2007, published 2010).
